Values quoted from earlier work as cited in patent US20090023668A1, “Method for treating blepharitis” (priority 2006, published 2009).

Details: administered to an ocular area at a concentration of 0.1%

Q: With `C[C@@H]1C[C@H]2[C@@H]3CCC4=CC(=O)C=C[C@]4(C)[C@@]3(F)[C@@H](O)C[C@]2(C)[C@@]1(O)C(=O)CO` [dexamethasone] as the compound, how does the “effect on intraocular pressure” value read?
A: can result in an increase in intraocular pressure
